Laboratory results as given in ChEMBL document CHEMBL1123818, “Synthesis and biological activity of 5-(2,2-difluorovinyl)-2'-deoxyuridine” (1987).
Values after ≈ are worked out from the molar mass of the structure shown.

What was measured:
[1] = Compound was tested for antiviral activity against herpes simplex virus( HSV-1-F) strain in primary rabbit kidney cells; type: functional; settings: Oryctolagus cuniculus
[2] = Compound was tested for antiviral activity against herpes simplex virus( HSV-1-McIntyre) strain in primary rabbit kidney cells; type: functional; settings: Oryctolagus cuniculus
[3] = Compound was tested for antiviral activity against […] Vassicular stomatitis in primary rabbit kidney cells; type: functional; settings: Oryctolagus cuniculus
[4] = tested on: Human alphaherpesvirus 1; assay: (§1) Compound was tested for antiviral activity against herpes simplex virus (thymidine kinase deficient herpes simplex virus ( HSV-1 (B2006) in primary rabbit kidney cells; type: functional
[5] = Compound was tested for antiviral activity against herpes simplex virus( HSV-2-196 strain in primary rabbit kidney cells; type: functional; settings: Oryctolagus cuniculus
[6] = tested on: MOLT-4F; assay: Compound was tested for antitumor activity against human T-lymphoblast Molt/4F cells; type: functional
[7] = tested on: Raji; assay: Compound was tested for antitumor activity against thymidine kinase deficient human B-lymphoblast […] cells; type: functional
[8] = Compound was tested for antitumor activity against HSV-1 TK gene transformed TK deficient FM3A cells; type: functional; settings: Mus musculus
[9] = tested on: FM3A; assay: Compound was tested for antitumor activity against FM3A/0 mammary carcinoma cells; type: functional; settings: Mus musculus
[10] = Compound was tested for antiviral activity against herpes simplex virus( HSV-2-lyons) strain in primary rabbit kidney cells; type: functional; settings: Oryctolagus cuniculus
[11] = tested on: FM3A; assay: Compound was tested for antitumor activity against FM3A/TK- cells; type: functional; settings: Mus musculus
[12] = Compound was tested for antiviral activity against herpes simplex virus( HSV-1-KOS) strain in primary rabbit kidney cells; type: functional; settings: Oryctolagus cuniculus
[13] = tested on: Raji; assay: Compound was tested for antitumor activity against human B-lymphoblast Raji/0 cells; type: functional
[14] = Compound was tested for antiviral activity against herpes simplex virus( HSV-2-G) strain in primary rabbit kidney cells; type: functional; settings: Oryctolagus cuniculus
[15] = tested on: L1210; assay: Compound was tested for antitumor activity against L1210 cells; type: functional; settings: Mus musculus
[16] = organism: Oryctolagus cuniculus; assay: Compound was tested for antiviral activity against Vaccinia virus in primary rabbit kidney cells; type: functional
[17] = tested on: Human alphaherpesvirus 1; assay: as §1; type: functional, Oryctolagus cuniculus
[18] = tested on: Human alphaherpesvirus 1; assay: Compound was tested for antiviral activity against herpes simplex virus (thymidine kinase deficient herpes simplex virus( HSV-1 (B2006) in primary rabbit kidney cells; type: functional, Oryctolagus cuniculus
[19] = Compound was tested for antiviral activity against herpes simplex virus (HSV-1-McIntyre) strain in primary rabbit kidney cells; type: functional; settings: Oryctolagus cuniculus

| SMILES | MIC50 [1] [µg/mL] | MIC50 [2] [µg/mL] | MIC50 [3] [µg/mL] | MIC50 [4] [µg/mL] | MIC50 [5] [µg/mL] | MIC50 [6] [µg/mL] | MIC50 [7] [µg/mL] | MIC50 [8] [µg/mL] | MIC50 [9] [µg/mL] | MIC50 [10] [µg/mL] | MIC50 [11] [µg/mL] | MIC50 [12] [µg/mL] | MIC50 [13] [µg/mL] | MIC50 [14] [µg/mL] | MIC50 [15] [µg/mL] | MIC50 [16] [µg/mL] | MIC50 [17] [µg/mL] | MIC50 [18] [µg/mL] | MIC50 [19] [µg/mL] |
| --- | --- | --- | --- | --- | --- | --- | --- | --- | --- | --- | --- | --- | --- | --- | --- | --- | --- | --- | --- |
| O=c1[nH]c(=O)n([C@@H]2C[C@H](O)[C@@H](CO)O2)cc1C=C(F)F | 20 (≈ 68.9 µM) | 20 (≈ 68.9 µM) | > 200 | > 200 | 100 (≈ 345 µM) | > 100 | > 100 | > 100 | > 100 | 70 (≈ 241 µM) | > 100 | 20 (≈ 68.9 µM) | > 100 | 150 (≈ 517 µM) | > 100 | – | – | – | – |
| O=c1[nH]c(=O)n([C@H]2C[C@H](O)[C@@H](CO)O2)cc1C=C(F)F | 0.3 (≈ 1.03 µM) | 0.3 (≈ 1.03 µM) | > 200 | – | 10 (≈ 34.5 µM) | 42 (≈ 145 µM) | > 100 | 0.25 (≈ 0.861 µM) | 55 (≈ 190 µM) | 3 (≈ 10.3 µM) | > 100 | 0.2 (≈ 0.689 µM) | 33 (≈ 114 µM) | 6 (≈ 20.7 µM) | 30 (≈ 103 µM) | 15 (≈ 51.7 µM) | > 200 | – | – |
| O=c1[nH]c(=O)n([C@H]2C[C@H](O)[C@@H](CO)O2)cc1C=C(Br)Br | 70 (≈ 170 µM) | 20 (≈ 48.5 µM) | > 400 | – | 150 (≈ 364 µM) | > 100 | > 100 | 7 (≈ 17 µM) | > 100 | 200 (≈ 485 µM) | > 100 | 20 (≈ 48.5 µM) | > 100 | 200 (≈ 485 µM) | > 100 | 100 (≈ 243 µM) | > 150 | – | – |
| Oc1ncc(C=C(F)F)c(O)n1 | > 200 | – | > 200 | – | > 200 | > 100 | > 100 | > 100 | > 100 | > 200 | > 100 | > 200 | > 100 | > 200 | > 100 | > 200 | – | > 200 | > 200 |
| O=c1[nH]c(=O)n([C@H]2C[C@H](O)[C@@H](CO)O2)cc1/C=C/Br [BRIVUDINE] | 0.02 (≈ 0.06 µM) | 0.02 (≈ 0.06 µM) | > 200 | – | 7 (≈ 21 µM) | > 100 | 78 (≈ 234 µM) | 0.0004 (≈ 0.0012 µM) | 13 (≈ 39 µM) | 7 (≈ 21 µM) | 0.4 (≈ 1.2 µM) | 0.02 (≈ 0.06 µM) | 29 (≈ 87.1 µM) | 2 (≈ 6 µM) | 31 (≈ 93.1 µM) | 20 (≈ 60 µM) | > 200 | – | – |
| O=c1[nH]c(=O)n([C@H]2C[C@H](O)[C@@H](CO)O2)cc1I [IDOXURIDINE] | 0.2 (≈ 0.565 µM) | 0.3 (≈ 0.847 µM) | > 200 | – | 3 (≈ 8.47 µM) | – | – | – | – | 1.5 (≈ 4.24 µM) | – | 0.15 (≈ 0.424 µM) | – | 1.5 (≈ 4.24 µM) | – | 0.5 (≈ 1.41 µM) | > 200 | – | – |
